Reference: paper PMC6754450, “Antimicrobial activity and mechanism of action of a novel peptide present in the ecdysis process of centipede Scolopendra subspinipes subspinipes” (Scientific Reports, 2019)
Where a SMILES comes first, the peptide text is derived from it.

What was measured:
[1] = tested on: All of the microorganisms tested; assay: Antimicrobial activity, summary over all microorganisms tested; format: cell-based; details: summary of Table 1; 17 bacterial, yeast and fungal strains
Protocol: (§1) During the purification procedure, the antimicrobial activities of the fractions were monitored by liquid growth inhibition assays against E. coli SBS 363, M. luteus A270, A. niger, and C. albicans MDM8. Bacteria were cultured in poor nutrient broth (PB) (1.0 g peptone in 100 mL of water containing 86 mM NaCl at pH 7.4; 217 mOsm), and fungi and yeasts were cultured in poor potato dextrose broth (1/2- strength PDB) (1.2 g potato dextrose in 100 mL of water at pH 5.0; 79 mOsm). Determination of antimicrobial activity was performed as previously described[12]–[14].
(§2) The MIC is defined as the minimum concentration of peptide required to achieve 100% growth inhibition. […] The two peptides were dissolved in ultrapure water at a final concentration of 1 mM. […] MBCs were determined after 96 h of incubation at 30 °C. The lowest concentration with no visible growth was defined as the MBC, indicating 99.5% killing of the original inoculum. Microbial growth was measured by monitoring the increase in optical density at 595 nm using a Victor 3TM 1420 multilabel counter (PerkinElmer, Waltham, MA, USA). Assays were performed in triplicate.

[2] = 25% fresh human blood plasma in water, 37 °C; 20 µL of 10 mg/mL peptide stock in 1 mL; TFA quench; LC/ESI-MS peak area; triplicate; followed over 360 min
Protocol: An aliquot (20 μL) of the aqueous peptide stock solution (10 mg/mL) was added to 1 mL of 25% solution of fresh human blood plasma in water at 37 °C. Aliquots (50 μL) were withdrawn and added to 5 μL of pure trifluoroacetic acid (TFA) at different time intervals, then incubated at 5 °C for 15 min. Following incubation, the resulting mixtures were centrifuged at 3000 g for 5 min. The supernatants (20 μL) were injected into an online LC/ESI-MS equipment. Elution was performed using an ACN/TFA linear gradient of 3% to 57% ACN at a flow rate of 0.3 mL/min for 30 min. The remaining peptide was monitored by the corresponding peak area in the chromatogram. Assays were conducted in triplicate.
The human blood sample was obtained from a healthy adult donor at Vital Brazil Hospital in accordance with Ethical Guidelines of the Butantan Institute (protocol CEUAIB No. I-1043/13). Written informed consent was obtained from the donor.

[3] = tested on: Alcaligenes faecalis ATCC 8750; assay: Liquid growth inhibition assay (MIC/MBC); format: cell-based; details: PB medium, highest concentration tested 100 µM, triplicate
Protocol: as §1, §2

Aspergillus niger = assay: Liquid growth inhibition assay (MIC/MBC); format: cell-based; details: 1/2-strength PDB, highest concentration tested 100 µM, triplicate
Protocol: as §1, §2

[4] = tested on: Bacillus megaterium ATCC 10778; assay: Liquid growth inhibition assay (MIC/MBC); format: cell-based; details: PB medium, highest concentration tested 100 µM, triplicate
Protocol: as §1, §2

[5] = tested on: Bacillus subtilis ATCC 6633; assay: Liquid growth inhibition assay (MIC/MBC); format: cell-based; details: PB medium, highest concentration tested 100 µM, triplicate
Protocol: as §1, §2

Beauveria bassiana = assay: Liquid growth inhibition assay (MIC/MBC); format: cell-based; details: 1/2-strength PDB, highest concentration tested 100 µM, triplicate
Protocol: as §1, §2

Candida albicans MDM8 = assay: Liquid growth inhibition assay (MIC/MBC); format: cell-based; details: 1/2-strength PDB, highest concentration tested 100 µM, triplicate
Protocol: as §1, §2

[6] = tested on: Candida tropicalis IOC 4560; assay: Liquid growth inhibition assay (MIC/MBC); format: cell-based; details: 1/2-strength PDB, highest concentration tested 100 µM, triplicate
Protocol: as §1, §2

[7] = tested on: Enterobacter cloacae β-12; assay: Liquid growth inhibition assay (MIC/MBC); format: cell-based; details: PB medium, highest concentration tested 100 µM, triplicate
Protocol: as §1, §2

Escherichia coli D31 = assay: Liquid growth inhibition assay (MIC/MBC); format: cell-based; details: PB medium, highest concentration tested 100 µM, triplicate
Protocol: as §1, §2

Escherichia coli SBS 363 = assay: Liquid growth inhibition assay (MIC/MBC); format: cell-based; details: PB medium, highest concentration tested 100 µM, triplicate
Protocol: as §1, §2

Micrococcus luteus A270 = assay: Liquid growth inhibition assay (MIC/MBC); format: cell-based; details: PB medium, highest concentration tested 100 µM, triplicate
Protocol: as §1, §2

[8] = tested on: Pseudomonas aeruginosa ATCC 27853; assay: Liquid growth inhibition assay (MIC/MBC); format: cell-based; details: PB medium, highest concentration tested 100 µM, triplicate
Protocol: as §1, §2

[9] = tested on: Saccharomyces cerevisiae PM340; assay: Liquid growth inhibition assay (MIC/MBC); format: cell-based; details: 1/2-strength PDB, highest concentration tested 100 µM, triplicate
Protocol: as §1, §2

[10] = tested on: Salmonella Arizonae ATCC 13314; assay: Liquid growth inhibition assay (MIC/MBC); format: cell-based; details: PB medium, highest concentration tested 100 µM, triplicate
Protocol: as §1, §2

[11] = tested on: Salmonella Typhimurinum ATCC 14028; assay: Liquid growth inhibition assay (MIC/MBC); format: cell-based; details: PB medium, highest concentration tested 100 µM, triplicate
Protocol: as §1, §2

[12] = tested on: Serratia marcescens ATCC 4112; assay: Liquid growth inhibition assay (MIC/MBC); format: cell-based; details: PB medium, highest concentration tested 100 µM, triplicate
Protocol: as §1, §2

[13] = tested on: Staphylococcus aureus ATCC 29213; assay: Liquid growth inhibition assay (MIC/MBC); format: cell-based; details: PB medium, highest concentration tested 100 µM, triplicate
Protocol: as §1, §2

human erythrocytes = assay: Haemolytic activity; format: cell-based; details: 3% erythrocytes in PBS, 3 h, 37 °C; for Haemolysis (%): A414, relative to 0.1% Triton X-100, triplicate
Protocol: Absorbance in the supernatant was measured at 414 nm. The haemolysis percentage was expressed in relation to a 100% lysis control (erythrocytes incubated with 0.1% Triton X-100); PBS was used as a negative control. Assays were conducted in triplicate.
Red blood cells were obtained under the same conditions and from the same donor mentioned in the plasma stability assay section.

[14] = 100% growth inhibition, two-fold serial dilution, 30 °C, 18 h
[15] = no visible growth after 96 h at 30 °C

CC(=O)N[C@H](C(=O)N[C@@H](C)C(=O)N[C@@H](CCC(=O)O)C(=O)N[C@@H](C)C(=O)N[C@@H](CCCNC(=N)N)C(=O)N[C@@H](CCC(N)=O)C(=O)NCC(=O)N[C@@H](CO)C(=O)N[C@@H](Cc1ccccc1)C(=O)N[C@@H](CO)C(=O)N[C@@H](Cc1ccc(O)cc1)C(N)=O)C(C)C [Pinipesin AC] (Ac-VAEARQGSFSY-NH2)
≤ 60 min: Time within which peptide is almost totally digested in human plasma [2]
did not show antimicrobial activity: Concentrations at which active against all microorganisms tested [1]

CC(C)[C@H](N)C(=O)N[C@@H](C)C(=O)N[C@@H](CCC(=O)O)C(=O)N[C@@H](C)C(=O)N[C@@H](CCCNC(=N)N)C(=O)N[C@@H](CCC(N)=O)C(=O)NCC(=O)N[C@@H](CO)C(=O)N[C@@H](Cc1ccccc1)C(=O)N[C@@H](CO)C(=O)N[C@@H](Cc1ccc(O)cc1)C(=O)O [Pinipesin] (H-VAEARQGSFSY-OH)
15.16 µg/mL: MIC [3, 14] | MBC [3, 15] | MIC [4, 14] | MBC [4, 15] | MIC (Escherichia coli D31; [14]) | MBC (Escherichia coli D31; [15]) | MBC (Micrococcus luteus A270; [15]) | MIC [8, 14] | MBC [8, 15] | MIC [11, 14] | MBC [11, 15]
0%: Haemolysis (%) (human erythrocytes; 4 µM peptide) | Haemolysis (%) (human erythrocytes; 8 µM peptide) | Haemolysis (%) (human erythrocytes; 16 µM peptide) | Haemolysis (%) (human erythrocytes; 32 µM peptide) | Haemolysis (%) (human erythrocytes; 125 µM peptide) | Haemolysis (%) (human erythrocytes; 250 µM peptide)
30.33 µg/mL: MIC (Aspergillus niger; [14]) | MBC (Aspergillus niger; [15]) | MIC [5, 14] | MBC [5, 15] | MIC (Beauveria bassiana; [14]) | MBC (Beauveria bassiana; [15]) | MIC (Candida albicans MDM8; [14]) | MBC (Candida albicans MDM8; [15]) | MIC [6, 14] | MBC [6, 15] | MIC [7, 14] | MBC [7, 15] | MIC (Escherichia coli SBS 363; [14]) | MBC (Escherichia coli SBS 363; [15]) | MIC [9, 14] | MBC [9, 15] | MIC [10, 14] | MBC [10, 15] | MIC [12, 14] | MBC [12, 15]
≤ 60 min: Time within which peptide is almost totally digested in human plasma [2]
25.14%: Haemolysis (%) (human erythrocytes; 500 µM peptide)
7.58 µg/mL: MIC (Micrococcus luteus A270; [14]) | MIC [13, 14] | MBC [13, 15]
No haemoglobin release was observed: Haemoglobin release at the concentrations active against bacteria, yeasts and fungi (human erythrocytes)
